Consider 32 compounds from PubChem BioAssay (NCI).

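The compound was tested at five concentrations on cells cultured in 96-well plates, with a 48-hour exposure period. At the GI50, growth is halved. TGI marks complete inhibition of growth.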 Bounds are passed on as bounds.

Holding throughout (test): NCI-60 cell line screen, 48 h
Test [1] relates to MALME-3M melanoma.
Test [2] deals with SNB-19 CNS.
Test [3] concerns HT29 colon.
The subject of test [4] is UACC-257 melanoma.
Test [5] has as its system NCI-H522 lung.
The subject of test [6] is SK-OV-3 ovarian.
In test [7] the test system is NCI-H23 lung.
Test [8] has as its system DU-145 prostate.
The test system of test [9] is MDA-MB-435.
In test [10] the test system is PC-3 prostate.

Turning to `CC(=O)Nc1ccc(C2[C@H]3C(=O)N(c4ccc(Cc5ccc(N6C(=O)[C@@H]7ON(c8ccccc8)C(c8ccc(NC(C)=O)cc8)[C@@H]7C6=O)cc5)cc4)C(=O)[C@H]3ON2c2ccccc2)cc1` (stereo partly drawn), the TGI in [1], in [2], in test [3], in test [4], in [5] and in [6] was over 100 µM each time. In [7], this compound showed a TGI of over 100 µM.
`COC(=O)C1=C(O)C(O)=C(C(=O)OC)C1`: the TGI in test [1], in test [2], in test [3], in test [4], in test [5] and in test [6] was over 100 µM each time. Also, the TGI in [7] was over 100 µM.
With `CC1NOC(=O)C1N=Nc1ccccc1Cl` (stereo not drawn), the TGI is 65.7 µM in test [1]; over 100 µM in [2]; 47 µM in [4]; 34.2 µM in test [5]; 94.4 µM in [6]; over 100 µM in test [7].
Turning to `O=S1(=O)C[C@@H](O)[C@H](O)CS1`, the TGI in test [1], in test [2], in [3], in test [4], in [5] and in test [6] was over 100 µM throughout. For the same compound, the TGI in test [7] was over 100 µM.
Turning to `ON=C1CCC(c2ccccc2)CC1` (stereo not drawn), the TGI in [1], in test [2], in test [3], in test [4], in test [5] and in test [6] was over 100 µM throughout. The TGI in [7] was over 100 µM.
Take `CCOC(=O)c1ccc(N2C(=O)/C(=C\OC)c3ccccc3C2=O)cc1`: the TGI in [1] is over 100 µM; in [2], over 100 µM; in [3], over 100 µM; in test [4], over 100 µM; in test [5], over 100 µM; in test [6], 41.9 µM. For the same compound, the TGI in [7] was over 100 µM.
Turning to `CC(C(=O)Oc1ccc2ccccc2c1-c1c(O)ccc2ccccc12)c1ccccc1` (stereo not drawn), the TGI in test [1] is 34.8 µM; in test [2] it was 28.4 µM; in test [3], 28.8 µM; in test [4], 27.6 µM; in [6] it was 29.6 µM; in [7] it was 30.3 µM.
For the compound `O=C([CH-]C(=O)c1ccccc1)c1ccccc1.O=C([CH-]C(=O)c1ccccc1)c1ccccc1.[Nd+3].[OH-].[OH3+]`, the GI50 in test [1] is 12.4 µM; in test [2] it was 8.19 µM; in test [3] it was 8.8 µM; in [4], 15.2 µM; in [5], 1.42 µM; in test [6] it was 14.5 µM. In test [7], the GI50 is 3.91 µM. Moreover, the TGI in [1] was found to be 53.2 µM; in [2], 44.9 µM; in test [3], 26.2 µM; in [4] it was 41.9 µM; in [5], 13.3 µM; in [6] it was 48.2 µM. The compound further gave a TGI in test [7] of 18.6 µM.
Consider `O=C(c1ccccc1)c1c(C(=O)c2ccccc2)c(-c2ccccc2)c2c(-c3ccccc3)sc(-c3ccccc3)c2c1-c1ccccc1`, for which the TGI in [1], in test [2], in test [3], in [4], in test [5] and in test [6] was over 100 µM in each case. Further, the TGI in test [7] was over 100 µM.
`Cc1c2cc[nH]c(=O)c2cc2c(=O)c3cnccc3[nH]c12`: the TGI in [1], in test [2], in [3], in test [4], in [5] and in test [6] was over 100 µM in each case. This compound also yielded a TGI in test [7] of over 100 µM.
Take `CCOC(=O)C(C)c1cc(C2(C)OCCO2)c(C)o1` (stereo not drawn): the TGI in test [1], in test [2], in test [6] and in test [7] was over 100 µM each time.
For the compound `CN(c1ccccc1)C(c1ccccc1)C(O)c1ccccc1` (stereo not drawn), the TGI in [1] was determined as 31.4 µM; in [2], 36.4 µM; in test [3], 32.9 µM; in test [4] it was 35.6 µM; in [5], 36.9 µM; in [6] it was 52.1 µM. In addition, in test [7], the TGI amounted to 40.4 µM.
For `O=c1cc2ccccc2nn1-c1ccccc1Cl`, the TGI in test [1], in test [2], in test [3], in test [4], in [6] and in test [7] was over 100 µM in each case.
`O=C1C(=O)N(c2ccc(Cl)c(Cl)c2)C(=O)C(=O)C1c1nc2ccccc2o1`: the TGI in test [1], in [2], in test [3], in [4], in test [5] and in test [6] was over 100 µM each time. In [7], the TGI was over 100 µM.
As for `Cc1cc(C)nc(Nc2nc3ccc([N+](=O)[O-])cc3[nH]2)n1`, the TGI in test [1], in test [2], in test [3], in test [4], in [5] and in [7] was over 100 µM in each case.
Turning to `CS(=O)c1ccc(COP(N)(=O)N(CCCl)CCCl)cc1` (stereo not drawn), the TGI in [1], in [2], in test [3], in test [4], in [5] and in test [6] was over 100 µM each time. In addition, in test [7], the TGI is over 100 µM.
For `O=C(O)C12C3CCCC1C2CC3` (stereo not drawn), the TGI in test [1], in [2], in [3], in [4], in [5] and in test [6] was over 100 µM each time. The compound also displayed a TGI in test [7] of over 100 µM.
On to `COC(=O)c1c(CC#N)cccc1CC#N`, for which the TGI in [1], in [2], in test [3], in [4], in test [5] and in test [6] was over 100 µM throughout. The TGI in test [7] is over 100 µM.
Regarding `Nc1c(-c2nc3ccccc3[nH]2)sc(=S)n1-c1ccccc1`, the TGI in test [1], in test [2], in test [3], in [4], in test [5] and in test [6] was over 100 µM each time. The same compound registered a TGI in test [7] of over 100 µM.
As for `N.N.NC(CS)C(=O)[O-].NC(CS)C(=O)[O-].[Pt+4]` (stereo not drawn), the GI50 in [1], in test [2], in [3], in test [4], in [5] and in test [6] was over 50 µM throughout. The GI50 in test [7] was over 50 µM. Further, the TGI in [1], in [2], in [3], in test [4], in test [5] and in test [6] was over 50 µM in each case. Further, the TGI in test [7] is over 50 µM.
Consider `O=C1OC2(c3ccccc3Oc3ccccc32)c2ccccc21`, for which the TGI in test [1], in test [2], in [3], in test [4], in test [5] and in [6] was over 100 µM throughout. Moreover, the TGI in test [7] was over 100 µM.
Regarding `C=C1CC[C@@H]2C(C)(C)CCC[C@@]2(C)[C@@H]1Cc1cc(O)ccc1O`, the TGI worked out at 17.4 µM in test [1]; 21.9 µM in [2]; 32.6 µM in test [3]; 5.78 µM in [4]; 3.66 µM in test [5]; 6.04 µM in test [6]. In addition, the TGI in [7] turned out to be 18.7 µM.
As to `O=[N+]([O-])C1C2C=CC(C2)[C@H]1c1ccccc1Cl` (stereo partly drawn), the TGI in test [1] was over 100 µM; in test [2], over 100 µM; in test [3], over 100 µM; in test [4] it was over 100 µM; in [5], over 31.6 µM; in test [6], over 31.6 µM. The compound also gave a TGI in test [7] of over 100 µM.
Consider `COC(=O)c1nc(NC#N)[nH]c(=O)c1C`, for which the TGI in test [1], in test [2], in test [3], in test [4], in [5] and in test [6] was over 100 µM throughout. This compound also returned a TGI in [7] of over 100 µM.
As for `CCOC(=O)C1C(=O)c2ccccc2CN1Cc1ccccc1` (stereo not drawn), the TGI in test [1], in [2], in test [3], in test [4], in test [5] and in test [6] was over 100 µM in each case. Also, the TGI in [7] was over 100 µM.
With `CCOC(=O)C(=O)Nc1c(N(CC)CC)n2ccccc2nc1=O`, the TGI in test [1], in test [2], in test [3], in test [5], in [6] and in test [7] was over 100 µM in each case.
Regarding `CC(=O)OC(C)(C)/C=C/C(=O)[C@](C)(O)[C@H]1[C@H](O)C[C@@]2(C)[C@@H]3CC=C4[C@@H](C[C@H](O)C(=O)C4(C)C)[C@]3(C)C(=O)C[C@]12C`, the TGI is 1.55 µM in test [1]; 0.153 µM in test [2]; 1.05 µM in test [8]; 2.42 µM in [4]; 2.46 µM in test [9]; under 0.01 µM in test [5]. Also, the results for the TGI in test [6] and in [7] were under 0.0234 µM and 4.07 µM, respectively.
For `CCOP(=O)(OCC)/C(C#N)=C/c1ccco1`, the TGI in test [1], in [3], in test [4], in test [5], in test [6] and in [7] was over 100 µM throughout.
For `CC[N+](CC)(CC)CCCn1c2c(c3ccccc3c1=O)C(=O)c1ccccc1-2`, the GI50 is 31.6 µM in test [2]; 9.13 µM in test [10]; 6.3 µM in [3]; 12.3 µM in [4]; 18.3 µM in test [9]; 4.71 µM in test [5]. Further, the GI50 is 52.6 µM in test [6] and 2.31 µM in test [7]. The TGI in [2] is over 100 µM; in test [10] it was 69.1 µM; in test [3], over 100 µM; in test [4], 36.3 µM; in test [9], 62.6 µM; in [5], 21.4 µM. Also, the TGI in test [6] is over 100 µM; in test [7], 6.42 µM.
On to `CC(=O)/C=C/c1ccc(C2CC(C)=Nc3c(ccc4c3C(=O)c3ccccc3C4=O)N2)cc1` (stereo not drawn), for which the TGI in [1], in test [2], in test [3], in [5], in [6] and in test [7] was over 100 µM in each case.
As for `c1ccc(N=C2c3ccccc3C3=NCCCN32)cc1`, the TGI is over 100 µM in test [1]; over 100 µM in [2]; over 100 µM in [3]; over 100 µM in [4]; 96.8 µM in [5]; over 100 µM in test [7].
For `COc1ccc2[nH]c(Cl)c(/C=C3/C(=O)N(C)c4ccccc43)c2c1`, the GI50 was over 100 µM in test [1]; 48.9 µM in test [2]; over 100 µM in test [10]; over 100 µM in test [3]; over 100 µM in [4]; over 100 µM in [9]. Besides, the GI50 in test [5] was over 100 µM; in [6], 77.4 µM; in test [7], over 100 µM. Besides, the TGI in [1], in test [2], in [10], in test [3], in [4] and in test [9] was over 100 µM throughout. Also, the TGI in [5], in test [6] and in [7] was over 100 µM each time.
